Data published in patent US9527858B2, “Compounds and compositions for use in phototherapy and in treatment of ocular neovascular disease and cancers” (Mallinckrodt LLC, priority 2009, dated 2016).

Experiments:
AsPC-1 cells = assay: Comparative studies, orthotopic AsPC-1 pancreatic tumor in nude mice; type: in vivo; details: subQ close to the pancreas, one injection per day for 10 days, total dose 20 mg/mouse; sacrificed at day 24; FIG. 4
Description: In these experiments nude mice weighing approximately 25 grams were used. First, the tail of the pancreas was exposed through an abdominal incision. Then 1×10^6 AsPC-1 cells were injected into the pancreas. The pancreas was replaced in the peritoneal cavity and the incision was closed. A 3-5 mm diameter tumor developed in 10 days.
MNTX was dissolved at 40 mg/mL in phosphate buffered saline (PBS) and then formulated to 100 uL (50 uL drug and 50 uL PBS) and injected subQ close to the pancreas. One injection per day was given for 10 days. The total dose was therefore 20 mg/mouse. For control and comparison, experiments on mice that were 1) not treated, 2) treated with light alone, 3) treated with gemcitibine alone, and 4) treated with Avastin alone using essentially the same procedure as described above were performed. The mice were sacrificed at day 24 and tumor weight was determined.
FIG. 4 provides local tumor burden experimental results for comparative studies involving administration of MNTX, Avastin and Gemcitabine anti-tumor agents. Tumor weight (mg) is shown for tumor conditions of: no treatment (NT); treatment with light alone (light alone); treatment with Gemcitabine alone (GEM); treatment with Avastin alone (Avastin) and treatment with MNTX (MNTX).

AsPC-1 pancreatic cancer = assay: Pancreatic tumor growth inhibition studies, orthotopic AsPC-1 pancreatic cancer; type: in vivo, nude mice; details: I.P. 150 mg/kg daily for 13 days, 10 animals, sacrificed on day 24; control PBS; FIG. 6
Description: In these experiments, the effect of a purified stereoisomer of MNTX on AsPC-1 pancreatic cancer was evaluated.
Nude mice weighing approximately 25 grams were used. The tail of the pancreas was exposed through an abdominal incision. Then 1×10^6 AsPC-1 cells were injected into the pancreas. The pancreas was replaced in the peritoneal cavity and the incision was closed. A 3-5 mm diameter tumor developed in 10 days.
MNTX1 was formulated at 10 mg/mL in PBS. The 150 mg/kg dose was accomplished by a […] injection of a 10 mg/mL stock solution. Injections were done daily for 13 days, and the 10 animals were subsequently sacrificed on day 24. Treatments start after 10 days of AsPC1 pancreatic tumor cell orthotopic implantation. After two more weeks, the mice are sacrificed and tumor weight is measured for the evaluation of tumor growth inhibition effects. For control, four mice were injected according to the above schedule with PBS only. They were also sacrificed on day 24. FIG. 5 provides a schematic illustrating the experimental design of the pancreatic tumor growth inhibition studies. I.P. treatments (150 mg MNTX1/kg/each injection, 300 μl of 10 mg/ml for each injection totally for 13 times, animal number=10).
FIG. 6 provides experimental results for the pancreatic tumor growth inhibition studies showing the effects of MNTX1 on AsPC-1 pancreatic cancer. […]

[1] = Escalating dose study on mice; type: in vivo; details: intraperitoneal injection
Description: The MNTX1 dose was established using an escalating dose study on mice. An intraperitoneal injection dose of 150 mg/kg was chosen. For a dosage of 400 mg/kg, 2 of 2 died, for a dosage of 200 mg/kg, 1 of 4 died; and for a dosage of 150 mg/kg (300 μl of 10 mg/ml), 3 of 3 survived. Therefore, a dose of 150 mg/kg (Intraperitoneal injection, I.P.) was used for each administration in the following orthotopic pancreatic tumor growth inhibition experiments.

endothelial cells = details: cited from earlier work
VEGF expression = details: cited from earlier work
[2] = cited from earlier work

Molecule: C[N@+]1(CC2CC2)CC[C@@]23c4c5ccc(O)c4CC1C2(O)CCC(=O)C3O5 (single isomer, unassigned; (-)) [MNTX, (−)-R-naltrexone methobromide]
- tumor weight measured at sacrifice (AsPC-1 cells): measurably superior to the control, Gemcitabine and Avastin conditions
- tumor weight measured at sacrifice (AsPC-1 pancreatic cancer): measurably superior to the control
- survived ([1]; dosage of 150 mg/kg (300 μl of 10 mg/ml)): 3 of 3
- died ([1]; dosage of 200 mg/kg): 1 of 4
- died ([1]; dosage of 400 mg/kg): 2 of 2
- synergy with Avastin to inhibit VEGF expression (endothelial cells): synergistic
- synergy with 5-fluorouracil (endothelial cells; in endothelial cells): synergistic

Molecule: COc1ccc2cc3[n+](cc2c1OC)CCc1cc2c(cc1-3)OCO2 [berberine]
- inhibition of VEGF expression (VEGF expression): some inhibition

Molecule: C[N@+]1(CC2CC2)CC[C@]23c4c5ccc(O)c4O[C@H]2C(=O)CC[C@@]3(O)[C@H]1C5 [methylnaltrexone, reference compound]
- potentiation of the cytotoxic effect of 5-fluorouracil (endothelial cells): ~700 ×

Molecule: α-interferon
- adverse effects ([2]; clinically tested for MD): high rate of adverse effects
- clinical efficacy for MD ([2]; clinically tested for MD): ineffective

B1: Lucentis: humanized anti-VEGF antibody fragment that inhibits VEGF activity by competitive binding (antibody, chains of the INN, looked up, V domains shown)
VH: EVQLVESGGGLVQPGGSLRLSCAASGYDFTHYGMNWVRQAPGKGLEWVGWINTYTGEPTYAADFKRRFTFSLDTSKSTAYLQMNSLRAEDTAVYYCAKYPYYYGTSHWYFDVWGQGTLVTVSS
VL: DIQLTQSPSSLSASVGDRVTITCSASQDISNYLNWYQQKPGKAPKVLIYFTSSLHSGVPSRFSGSGSGTDFTLTISSLQPEDFATYYCQQYSTVPWTFGQGTKVEIK
modifications: Fab
- patients maintaining their baseline vision ([2]; wet macular degeneration, after 12 months of treatment): About 95%
